From US10030021B2, “Spirocyclic morphinans and use thereof” (Purdue Pharma L.P., priority 2014, dated 2018)

Biological target: T1, μ-opioid receptor (Homo sapiens, UniProt P35372)
T1 construct: purchased Perkin Elmer, Shelton, Conn
Experiment: μ-opioid receptor [35S]GTPγS functional assay
Assay type: biochemical
Details: for Emax: maximal effect relative to DAMGO
Method: [^35S]GTPγS functional assays were conducted using freshly thawed μ-receptor membranes (Perkin Elmer, Shelton, Conn.). Assay reactions were prepared by sequentially adding the following reagents to binding buffer (100 mM NaCl, 10 mM MgCl2, 20 mM HEPES, pH 7.4) on ice (final concentrations indicated): membrane protein (0.026 mg/mL), saponin ([…]), GDP ([…]) and [^35S]GTPγS (0.20 nM; Perkin Elmer, Shelton, Conn.). The prepared membrane solution (190 μl/well) was transferred to 96-shallow well polypropylene plates containing 10 μl of 20× concentrated stock solutions of the agonist [D-Ala^2, N-methyl-Phe^4 Gly-ol^5]-enkephalin (DAMGO) prepared in dimethyl sulfoxide (DMSO). Plates were incubated for 30 min at about 25° C. with shaking. Reactions were terminated by rapid filtration onto 96-well Unifilter GF/B filter plates (Perkin Elmer, Shelton, Conn.) using a 96-well tissue harvester (Perkin Elmer, Shelton, Conn.) followed by three filtration washes with 200 μl of ice-cold wash buffer (10 mM NaH2PO4, 10 mM Na2HPO4, pH 7.4). Filter plates were subsequently dried at 50° C. for 2-3 hours. BetaScint scintillation cocktail (Perkin Elmer, Shelton, Conn.) was added (50 μl/well) and plates were counted using a Packard Top-Count for 1 min/well. Data were analyzed using the sigmoidal dose-response curve fitting functions in GraphPad PRISM v. 3.0, or an in-house function for non-linear, sigmoidal dose-response curve-fitting.
μ GTP EC50 is the concentration of a compound providing 50% of the maximal response for the compound at a μ-opioid receptor.
μ GTP Emax (%) is the maximal effect elicited by a compound relative to the effect elicited by DAMGO, a standard agonist. Generally, the μ GTP Emax (%) value measures the efficacy of a compound to treat or prevent pain or other Conditions.

T1 sequence (P35372 whole entry, species assumed): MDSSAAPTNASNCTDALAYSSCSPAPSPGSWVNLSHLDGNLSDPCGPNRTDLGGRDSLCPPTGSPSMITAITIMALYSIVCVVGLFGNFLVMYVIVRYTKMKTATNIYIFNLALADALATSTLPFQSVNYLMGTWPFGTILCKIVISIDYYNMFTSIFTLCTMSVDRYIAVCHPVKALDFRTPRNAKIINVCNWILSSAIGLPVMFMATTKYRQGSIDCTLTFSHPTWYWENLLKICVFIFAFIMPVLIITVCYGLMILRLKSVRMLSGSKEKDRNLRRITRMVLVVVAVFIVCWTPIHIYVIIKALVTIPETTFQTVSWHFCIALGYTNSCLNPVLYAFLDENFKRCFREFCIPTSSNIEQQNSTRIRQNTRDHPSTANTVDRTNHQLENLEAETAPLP

| SMILES | EC50 [µM] | Emax [%] |
| --- | --- | --- |
| COc1ccc2c(c1)[C@]13CCN[C@H](C2)[C@]1(O)CC[C@]1(C3)C(=O)N(CC2CC2)C(=O)N1CC1CC1 [Compound 17, (4S,4b′R,8a′S,9′R)-1,3-bis(cyclopropylmethyl)-8a′-hydroxy-3′-methoxy-8′,8a′,9′,10′-tetrahydro-5′H,7′H-spiro[imidazolidine-4,6′-[9,4b](epiminoethano)phenanthrene]-2,5-dione] | > 20 | 26 ± 5.51 |
| CCN1C(=O)N(CC)[C@]2(CC[C@@]3(O)[C@H]4Cc5ccc(OC)cc5[C@@]3(CCN4CCN(C)C)C2)C1=O [Compound 8, (4S,4b′R,8a′S,9′R)-11′-(2-(dimethylamino)ethyl)-1,3-diethyl-8a′-hydroxy-3′-methoxy-8′,8a′,9′,10′-tetrahydro-5′H,7′H-spiro[imidazolidine-4,6′-[9,4b](epiminoethano)phenanthrene]-2,5-dione] | > 20 | 1 |
| O=C1N(CC2CC2)C(=O)[C@@]2(CC[C@@]3(O)[C@H]4Cc5ccc(O)cc5[C@@]3(CCN4)C2)N1CC1CC1 [Compound 23, (4S,4b′R,8a′S,9′R)-1,3-bis(cyclopropylmethyl)-3′,8a′-dihydroxy-8′,8a′,9′,10′-tetrahydro-5′H,7′H-spiro[imidazolidine-4,6′-[9,4b](epiminoethano)phenanthrene]-2,5-dione] | 3.79 ± 0.287 | 15.7 ± 0.33 |
| COc1ccc2c(c1)[C@]13CCN(CCN(C)C)[C@H](C2)[C@]1(O)CC[C@]1(C3)C(=O)N(CC2CC2)C(=O)N1CC1CC1 [Compound 15, (4S,4b′R,8a′S,9′R)-1,3-bis(cyclopropylmethyl)-11′-(2-(dimethylamino)ethyl)-8a′-hydroxy-3′-methoxy-8′,8a′,9′,10′-tetrahydro-5′H,7′H-spiro[imidazolidine-4,6′-[9,4b]-(epiminoethano)phenanthrene]-2,5-dione] | > 20 | 1 |
| CN(C)CCCN1CC[C@]23C[C@]4(CC[C@@]2(O)[C@H]1Cc1ccc(O)cc13)NC(=O)NC4=O [Compound 30, (4S,4b′R,8a′S,9′R)-11′-(3-(dimethylamino)propyl)-3′,8a′-dihydroxy-8′,8a′,9′,10′-tetrahydro-5′H,7′H-spiro[imidazolidine-4,6′-[9,4b](epiminoethano)phenanthrene]-2,5-dione] | > 20 | 1 |
| CCN1C(=O)N(CC)[C@]2(CC[C@@]3(O)[C@H]4Cc5ccc(C(N)=O)cc5[C@@]3(CCN4C)C2)C1=O [Compound 33, (4S,4b′R,8a′S,9′R)-1,3-diethyl-8a′-hydroxy-11′-methyl-2,5-dioxo-8′,8a′,9′,10′-tetrahydro-5′H,7′H-spiro[imidazolidine-4,6′-[9,4b](epiminoethano)phenanthrene]-3′-carboxamide] | 0.974 ± 0.117 | 39.3 ± 1.78 |
| CCN1C(=O)N(CC)[C@]2(CC[C@@]3(O)[C@H]4Cc5ccc(OC)cc5[C@@]3(CCN4CCCN(C)C)C2)C1=O [Compound 14, (4S,4b′R,8a′S,9′R)-11′-(3-(dimethylamino)propyl)-1,3-diethyl-8a′-hydroxy-3′-methoxy-8′,8a′,9′,10′-tetrahydro-5′H,7′H-spiro[imidazolidine-4,6′-[9,4b](epiminoethano)-phenanthrene]-2,5-dione] | > 20 | 1 |
| COc1ccc2c(c1)[C@]13CCN(C)[C@H](C2)[C@@H]1CC[C@@]1(C3)NC(=O)NC1=O [Compound 2, (4S,4b′S,8a′R,9′R)-3′-methoxy-11′-methyl-8′,8a′,9′,10′-tetrahydro-5′H,7′H-spiro[imidazolidine-4,6′-[9,4b](epiminoethano)phenanthrene]-2,5-dione] | 18 ± 1.1 | 75.7 ± 0.88 |
| CCN1C(=O)N(CC)[C@]2(CC[C@@]3(O)[C@H]4Cc5ccc(O)cc5[C@@]3(CCN4CCN(C)C)C2)C1=O [Compound 26, (4S,4b′R,8a′S,9′R)-11′-(2-(dimethylamino)ethyl)-1,3-diethyl-3′,8a′-dihydroxy-8′,8a′,9′,10′-tetrahydro-5′H,7′H-spiro[imidazolidine-4,6′-[9,4b](epiminoethano)phenanthrene]-2,5-dione] | > 20 | 0.5 |
| CN(C)CCN1CC[C@]23C[C@@]4(CC[C@@]2(O)[C@H]1Cc1ccc(O)cc13)C(=O)N(CC1CC1)C(=O)N4CC1CC1 [Compound 25, (4S,4b′R,8a′S,9′R)-1,3-bis(cyclopropylmethyl)-11′-(2-(dimethylamino)ethyl)-3′,8a′-dihydroxy-8′,8a′,9′,10′-tetrahydro-5′H,7′H-spiro[imidazolidine-4,6′-[9,4b](epiminoethano)-phenanthrene]-2,5-dione] | > 20 | 1 |
| COc1ccc2c(c1)[C@]13CCN(CCN(C)C)[C@H](C2)[C@]1(O)CC[C@@]1(C3)NC(=O)NC1=O [Compound 3, (4S,4b′R,8a′S,9′R)-11′-(2-(dimethylamino)ethyl)-8a′-hydroxy-3′-methoxy-8′,8a′,9′,10′-tetrahydro-5′H,7′H-spiro[imidazolidine-4,6′-[9,4b](epiminoethano)phenanthrene]-2,5-dione] | > 20 | -0.8 |
| COc1ccc2c(c1)[C@]13CCN(CCCN(C)C)[C@H](C2)[C@]1(O)CC[C@@]1(C3)NC(=O)NC1=O [Compound 4, (4S,4b′R,8a′S,9′R)-11′-(3-(dimethylamino)propyl)-8a′-hydroxy-3′-methoxy-8′,8a′,9′,10′-tetrahydro-5′H,7′H-spiro[imidazolidine-4,6′-[9,4b](epiminoethano)phenanthrene]-2,5-dione] | > 20 | -1 ± 0.003 |
| CCN1C(=O)N(CC)[C@]2(CC[C@@]3(O)[C@H]4Cc5ccc(O)cc5[C@@]3(CCN4CCCN(C)C)C2)C1=O [Compound 27, (4S,4b′R,8a′S,9′R)-11′-(3-(dimethylamino)propyl)-1,3-diethyl-3′,8a′-dihydroxy-8′,8a′,9′,10′-tetrahydro-5′H,7′H-spiro[imidazolidine-4,6′-[9,4b](epiminoethano)phenanthrene]-2,5-dione] | > 20 | 1 |
| CCN1C(=O)N(CC)[C@]2(CC[C@@]3(O)[C@H]4Cc5ccc(O)cc5[C@@]3(CCN4)C2)C1=O [Compound 20, (4S,4b′R,8a′S,9′R)-1,3-diethyl-3′,8a′-dihydroxy-8′,8a′,9′,10′-tetrahydro-5′H,7′H-spiro[imidazolidine-4,6′-[9,4b](epiminoethano)phenanthrene]-2,5-dione] | 1.88 ± 0.252 | 28 ± 1.53 |
| CCN1C(=O)N(CC)[C@]2(CC[C@@]3(O)[C@H]4Cc5ccc(OC)cc5[C@@]3(CCN4)C2)C1=O [Compound 18, (4S,4b′R,8a′S,9′R)-1,3-diethyl-8a′-hydroxy-3′-methoxy-8′,8a′,9′,10′-tetrahydro-5′H,7′H-spiro[imidazolidine-4,6′-[9,4b](epiminoethano)phenanthrene]-2,5-dione] | > 20 | 35.7 ± 1.2 |
| COc1ccc2c(c1)[C@]13CCN(CCCN(C)C)[C@H](C2)[C@]1(O)CC[C@]1(C3)C(=O)N(CC2CC2)C(=O)N1CC1CC1 [Compound 13, (4S,4b′R,8a′S,9′R)-1,3-bis(cyclopropylmethyl)-11′-(3-(dimethylamino)propyl)-8a′-hydroxy-3′-methoxy-8′,8a′,9′,10′-tetrahydro-5′H,7′H-spiro[imidazolidine-4,6′-[9,4b]-(epiminoethano)phenanthrene]-2,5-dione] | > 20 | 1 |
| CCN1C(=O)N(CC)[C@]2(CC[C@@]3(O)[C@H]4Cc5ccc(/C(N)=N\O)cc5[C@@]3(CCN4C)C2)C1=O [Compound 34, (4S,4b′R,8a′S,9′R,E)-1,3-diethyl-N′,8a′-dihydroxy-11′-methyl-2,5-dioxo-8′,8a′,9′,10′-tetrahydro-5′H,7′H-spiro[imidazolidine-4,6′-[9,4b](epiminoethano)phenanthrene]-3′-carboximidamide] | 17.2 ± 1.2 | 29.7 ± 1.18 |
| O=C1NC(=O)[C@@]2(CC[C@@]3(O)[C@H]4Cc5ccc(O)cc5[C@@]3(CCN4)C2)N1 [Compound 22, (4S,4b′R,8a′S,9′R)-3′,8a′-dihydroxy-8′,8a′,9′,10′-tetrahydro-5′H,7′H-spiro[imidazolidine-4,6′-[9,4b](epiminoethano)phenanthrene]-2,5-dione] | 2.85 ± 0.216 | 71.7 ± 2.6 |
| CCN1C(=O)N(CC)[C@]2(CC[C@@]3(O)[C@H]4Cc5ccc(O)cc5[C@@]3(CCN4CCc3ccccc3)C2)C1=O [Compound 24, (4S,4b′R,8a′S,9′R)-1,3-diethyl-3′,8a′-dihydroxy-11′-phenethyl-8′,8a′,9′,10′-tetrahydro-5′H,7′H-spiro[imidazolidine-4,6′-[9,4b](epiminoethano)phenanthrene]-2,5-dione] | 0.073 ± 0.0197 | 65.3 ± 4.26 |
| CN(C)CCCN1CC[C@]23C[C@@]4(CC[C@@]2(O)[C@H]1Cc1ccc(O)cc13)C(=O)N(CC1CC1)C(=O)N4CC1CC1 [Compound 28, (4S,4b′R,8a′S,9′R)-1,3-bis(cyclopropylmethyl)-11′-(3-(dimethylamino)propyl)-3′,8a′-dihydroxy-8′,8a′,9′,10′-tetrahydro-5′H,7′H-spiro[imidazolidine-4,6′-[9,4b](epiminoethano)-phenanthrene]-2,5-dione] | > 20 | 1.36 |
